Legend:
Format in all cases: in vivo
Erodium cicuta = assay: post-emergence test, field trial (Examples 1-5); conditions: 28 d, FT; pelargonic acid 5440 g/ha, flazasulfuron 50 g/ha; 8 L/ha
From the text: (§1) The expected activity of a given combination of two or three herbicides can be calculated as follows according to a calculation method by Colby (cf. COLBY, S. R.: “Calculating synergistic and antagonistic responses of herbicide combinations”, • Weeds 15, pages 20-22, 1967): • If X=% damage by herbicide (A) at an application rate of m g/ha, • Y=% damage by herbicide (B) at an application rate of n g/ha, • E=the expected damage by herbicides (A) and (B) at application rates of m and n […] and, • then for a combination:
(§2) Individual compositions comprising pelargonic acid or flazasulfuron are compared with a herbicide composition according to the invention comprising pelargonic acid and flazasulfuron.
Herbicidal activity was determined by performing a post-emergence test. […] The corresponding mixture was in the form of a spray liquor. Besides, spray liquors of individual compositions comprising pelargonic acid or flazasulfuron were used.
Tests were performed on test fields (field trials) or in pots (pot trials).

Amaranthus retroflexus = assay: post-emergence field trial under rows of vines, 150-200 L water/ha (Examples 6-9); conditions: flazasulfuron 40 g/ha
From the text: as §1, §2
(§3) Herbicidal activity was determined by performing a post-emergence test. […] The corresponding mixture was in the form of a spray solution. Besides, spray solutions of individual compositions comprising pelargonic acid or flazasulfuron were used.
(§4) The spray solution was applied on plants of unwanted vegetation present on fields where perennial crops were grown.
(§5) After 5 to 88 days after application of the spray solution, the degree of damage to the unwanted vegetation is rated in % of plants of unwanted vegetation that were killed. Tests were performed on test fields (field trials).

Bromus oxyodon = assay: as above; conditions: flazasulfuron 40 g/ha
From the text: as §1, §2, §3, §4, §5

Chenopodium album = assay: as above; conditions: flazasulfuron 40 g/ha
From the text: as §1, §2, §3, §4, §5

Digitaria sanguinalis = assay: as above; conditions: flazasulfuron 40 g/ha
From the text: as §1, §2, §3, §4, §5

Epilobium tetragonum = assay: as above; conditions: flazasulfuron 40 g/ha
From the text: as §1, §2, §3, §4, §5

Erigeron sumatrensis = assay: as above; conditions: flazasulfuron 40 g/ha
From the text: as §1, §2, §3, §4, §5

Geranium molle = assay: as above; conditions: 15 d, flazasulfuron 40 g/ha
From the text: as §1, §2, §3, §4, §5

Oxalis latifolia = assay: as above; conditions: flazasulfuron 40 g/ha
From the text: as §1, §2, §3, §4, §5

Sonchus oleracea = assay: as above; conditions: flazasulfuron 40 g/ha
From the text: as §1, §2, §3, §4, §5

Stellaria media = assay: as above; conditions: flazasulfuron 40 g/ha
From the text: as §1, §2, §3, §4, §5

[1] = 7 d, pelargonic acid 10880 g/ha
[2] = 14 d, pelargonic acid 5440 g/ha
[3] = 14 d, pelargonic acid 10880 g/ha
[4] = 31 d, pelargonic acid 5440 g/ha
[5] = 31 d, pelargonic acid 8160 g/ha
[6] = 31 d, pelargonic acid 10880 g/ha
[7] = 58 d, pelargonic acid 5440 g/ha
[8] = 58 d, pelargonic acid 6800 g/ha
[9] = 58 d, pelargonic acid 8160 g/ha
[10] = 58 d, pelargonic acid 10880 g/ha
[11] = 14 d, pelargonic acid 6800 g/ha
[12] = 14 d, pelargonic acid 8160 g/ha
[13] = 28 d, pelargonic acid 5440 g/ha
[14] = 28 d, pelargonic acid 6800 g/ha
[15] = 28 d, pelargonic acid 8160 g/ha
[16] = 28 d, pelargonic acid 10880 g/ha
[17] = 27 d, pelargonic acid 5440 g/ha
[18] = 27 d, pelargonic acid 6800 g/ha
[19] = 27 d, pelargonic acid 8160 g/ha
[20] = 27 d, pelargonic acid 10880 g/ha
[21] = 56 d, pelargonic acid 5440 g/ha
[22] = 56 d, pelargonic acid 6800 g/ha
[23] = 56 d, pelargonic acid 8160 g/ha
[24] = 56 d, pelargonic acid 10880 g/ha

Measured: herbicidal effect

COc1cc(OC)nc(NC(=O)NS(=O)(=O)c2ncccc2C(F)(F)F)n1 [Flazasulfuron, 1-(4,6-dimethoxypyrimidin-2-yl)-3-(3-trifluoromethyl-2-pyridylsulfonyl)urea]
95%: Erodium cicuta
96%: Epilobium tetragonum; [11] | Epilobium tetragonum; [12] | Epilobium tetragonum; [3] | Epilobium tetragonum; [18] | Epilobium tetragonum; [19] | Epilobium tetragonum; [20] | Epilobium tetragonum; [22] | Epilobium tetragonum; [23] | Epilobium tetragonum; [24]
64%: Digitaria sanguinalis; [21] | Digitaria sanguinalis; [22] | Digitaria sanguinalis; [23] | Digitaria sanguinalis; [24]
30%: Stellaria media; 7 d, pelargonic acid 8160 g/ha | Stellaria media; [1]
80%: Digitaria sanguinalis; [2] | Digitaria sanguinalis; [11] | Digitaria sanguinalis; [12] | Digitaria sanguinalis; [3]
25%: Chenopodium album; [2] | Chenopodium album; [3]
54%: Stellaria media; [2] | Stellaria media; [11] | Stellaria media; [12] | Stellaria media; [3]
23%: Amaranthus retroflexus; 7 d, pelargonic acid 5440 g/ha | Amaranthus retroflexus; [1] | Amaranthus retroflexus; [2] | Amaranthus retroflexus; [3] | Chenopodium album; 7 d, pelargonic acid 5440 g/ha | Chenopodium album; [1]
51%: Digitaria sanguinalis; 7 d, pelargonic acid 5440 g/ha | Digitaria sanguinalis; 7 d, pelargonic acid 6800 g/ha | Digitaria sanguinalis; 7 d, pelargonic acid 8160 g/ha | Digitaria sanguinalis; [1]
53%: Amaranthus retroflexus; [4] | Amaranthus retroflexus; 31 d, pelargonic acid 6800 g/ha | Amaranthus retroflexus; [5] | Amaranthus retroflexus; [6] | Chenopodium album; [4] | Chenopodium album; [5] | Chenopodium album; [6]
65%: Chenopodium album; [7] | Chenopodium album; [8] | Chenopodium album; [9] | Chenopodium album; [10]
73%: Digitaria sanguinalis; [17] | Digitaria sanguinalis; [18] | Digitaria sanguinalis; [19] | Digitaria sanguinalis; [20]
86%: Stellaria media; [13] | Stellaria media; [14] | Stellaria media; [15] | Stellaria media; [16]
28%: Bromus oxyodon; 7 d, pelargonic acid 5440 g/ha | Bromus oxyodon; 7 d, pelargonic acid 6800 g/ha | Bromus oxyodon; 7 d, pelargonic acid 8160 g/ha | Bromus oxyodon; [1]
44%: Oxalis latifolia; [14]
98%: Erigeron sumatrensis; 15 d, pelargonic acid 5440 g/ha | Erigeron sumatrensis; 15 d, pelargonic acid 6800 g/ha | Erigeron sumatrensis; 15 d, pelargonic acid 8160 g/ha
61%: Epilobium tetragonum; 7 d, pelargonic acid 5440 g/ha | Epilobium tetragonum; 7 d, pelargonic acid 8160 g/ha | Epilobium tetragonum; [1]
74%: Sonchus oleracea; [17] | Sonchus oleracea; [18] | Sonchus oleracea; [19] | Sonchus oleracea; [20]
18%: Erigeron sumatrensis; 5 d, pelargonic acid 5440 g/ha | Erigeron sumatrensis; 5 d, pelargonic acid 8160 g/ha
70%: Sonchus oleracea; [21] | Sonchus oleracea; [22] | Sonchus oleracea; [23] | Sonchus oleracea; [24]
78%: Amaranthus retroflexus; [7] | Amaranthus retroflexus; [8] | Amaranthus retroflexus; [9] | Amaranthus retroflexus; [10] | Bromus oxyodon; [13] | Bromus oxyodon; [14] | Bromus oxyodon; [15] | Bromus oxyodon; [16]
75%: Sonchus oleracea; [2] | Sonchus oleracea; [11] | Sonchus oleracea; [12] | Sonchus oleracea; [3]
46%: Bromus oxyodon; [2] | Bromus oxyodon; [11] | Bromus oxyodon; [12] | Bromus oxyodon; [3]
29%: Oxalis latifolia; 7 d, pelargonic acid 6800 g/ha | Oxalis latifolia; 7 d, pelargonic acid 8160 g/ha | Oxalis latifolia; [1]
63%: Geranium molle; pelargonic acid 5440 g/ha | Geranium molle; pelargonic acid 6800 g/ha | Geranium molle; pelargonic acid 8160 g/ha | Geranium molle; pelargonic acid 10880 g/ha
49%: Oxalis latifolia; [2] | Oxalis latifolia; [11] | Oxalis latifolia; [12] | Oxalis latifolia; [3]

Source: patent US20240365781A1, “SYNERGISTICALLY EFFECTIVE HERBICIDE COMPOSITION COMPRISING PELARGONIC ACID AND FLAZASULFURON” (Belchim Crop Protection NV, priority 2017, published 2024)
